Earlier results as cited in patent US5525634A, “Colonic drug delivery system” (priority 1994, dated 1996).

Assays:
morphine-dependent rats = settings: for time to diarrhea: direct colonic administration; for time to diarrhea / time to diarrhea, withdrawal behavior and tail skin temperature response: morphine-dependent rats; for time to diarrhea, withdrawal behavior and tail skin temperature response: oral administration
[1] = small intestinal mucosa / esterases

C=CCN1CC[C@]23c4c5ccc(O[C@@H]6O[C@H](C(=O)O)[C@@H](O)[C@H](O)[C@H]6O)c4O[C@H]2C(=O)CC[C@@]3(O)[C@H]1C5 [naloxone glucuronide]
time to diarrhea (morphine-dependent rats): 5 to 8 min
activity on subcutaneous administration (morphine-dependent rats): inactive

C=C1CC[C@@]2(O)[C@H]3Cc4ccc(O)c5c4[C@@]2(CCN3CC2CC2)[C@H]1O5 [nalmefene]
time to diarrhea, withdrawal behavior and tail skin temperature response (morphine-dependent rats): ≤ 15 min

C=C1CCC2(O)C3Cc4ccc(OC5OC(C(=O)O)C(O)C(O)C5O)c5c4C2(CCN3CC2CC2)C1O5 (stereo not shown) [nalmefene glucuronide]
time to diarrhea (morphine-dependent rats): 5 to 8 min
activity on subcutaneous administration (morphine-dependent rats): inactive

CC(=O)Oc1ccc(C(c2ccc(OC(C)=O)cc2)c2ccccn2)cc1 [bisacodyl]
passage through / cleavage in the small intestine [1]: readily cleaved by the esterases in the small intestine

C=CCN1CC[C@]23c4c5ccc(O)c4O[C@H]2C(=O)CC[C@@]3(O)[C@H]1C5 [naloxone]
time to diarrhea, withdrawal behavior and tail skin temperature response (morphine-dependent rats): ≤ 15 min
